Assay results from publication PMC9540496 (Clinical Pharmacology and Therapeutics, 2022).
Marks after values point to notes of the source that are not given here.

Assays:
[1] = Phase I crossover DDI study: dabigatran etexilate; type: in vivo, human
[2] = Endogenous biomarkers NMN; type: in vivo, human; details: for Tmax: median (range)
[3] = clinical; details: both, human, plasma, oral, 500 mg
[4] = Phase I crossover DDI study: metformin; details: metformin 500 mg alone; median (range)
[5] = Phase I crossover DDI study: rosuvastatin; type: in vivo, human
[6] = cited from earlier work
[7] = Safety across the three phase I pharmacokinetic studies; type: in vivo, human
[8] = test system: P‐gp; assay: Anticipated effect of abrocitinib on digoxin, not formally evaluated; details: assuming complete P‐gp inhibition
[9] = Static perpetrator DDI risk assessment; details: for Theoretical gut concentration (Igut): 200 mg/250 mL
[10] = both, human, plasma, oral, 75 mg
[11] = dabigatran etexilate 75 mg + abrocitinib 200 mg vs alone
[12] = dabigatran etexilate 75 mg ± abrocitinib 200 mg single dose
[13] = rosuvastatin 10 mg ± abrocitinib 200 mg QD

Compound: [H]/N=C(/N)c1ccc(NCc2nc3cc(C(=O)N(CCC(=O)O)c4ccccn4)ccc3n2C)cc1 [Dabigatran, dabigatran]
- increase of plasma exposure on co‐administration with abrocitinib ([1]; abstract statement): ~ 50%
- Cmax [1, 10]: 30.2 ng/mL
- half-life [1, 10]: 8.93 ± 2.28 h
- increase of AUCinf on co‐administration with abrocitinib [1, 11]: 53%
- increase of Cmax on co‐administration with abrocitinib [1, 11]: 40%
- AUCinf ratio of abrocitinib + substrate vs. substrate alone AGm (90% CI) [1, 12]: 1.53 (1.09–2.15)
- Cmax ratio of abrocitinib + substrate vs. substrate alone AGm (90% CI) [1, 12]: 1.40 (0.92–2.13)

Compound: CC(C)C(=O)O[C@H](CC(=O)[O-])C[N+](C)(C)C [IBC, isobutyryl‐L‐carnitine]
- AUC24 ratio of abrocitinib + metformin vs. metformin alone AGm (90% CI) ([2]; IBC): 0.95 (0.85–1.05) ^c
- Cmax ratio of abrocitinib + metformin vs. metformin alone AGm (90% CI) ([2]; IBC): 0.95 (0.85–1.06) ^c
- AUC24 ([2]; IBC in plasma, metformin 500 mg alone, geometric mean (geometric %CV), N = 12): 1187 (56) ng•hour/mL
- Cmax ([2]; IBC, abrocitinib 200 mg + metformin 500 mg, geometric mean (geometric %CV)): 56.6 (55) ng/mL
- Tmax ([2]; IBC, abrocitinib 200 mg + metformin 500 mg): 14.0 (0.00–23.8) hour
- effect of abrocitinib co‐administration with metformin on AUC24 or Cmax ([2]; IBC, compared with metformin alone): did not alter
- Cmax ([2]; IBC, metformin 500 mg alone, geometric mean (geometric %CV)): 59.7 (56) ng/mL
- Tmax ([2]; IBC, metformin 500 mg alone): 16.0 (0.00–23.8) hour

Compound: CN(C)C(=N)N=C(N)N [Metformin, metformin]
- AUC(0-inf) [3]: 5200 ng·h/mL
- Cmax [3]: 721 ng/mL
- Tmax [4]: 4.00 (1.00–4.00) hour

Compound: CC(C)c1nc(N(C)S(C)(=O)=O)nc(-c2ccc(F)cc2)c1/C=C/[C@@H](O)C[C@@H](O)CC(=O)O [Rosuvastatin, rosuvastatin]
- plasma exposure and CLr on co‐administration with abrocitinib ([5]; 90% CIs within acceptance range of 80–125%): unaffected
- AUC(0-inf) ([5]; both, human, plasma, oral, 10 mg): 57.6 ng·h/mL
- CL renal ([5]; both, human, urine and plasma, oral, 10 mg): 243 mL/min
- Cmax ([5]; rosuvastatin 10 mg alone, geometric mean (geometric %CV)): 5.38 (53) ng/mL
- AUCinf ratio of abrocitinib + substrate vs. substrate alone AGm (90% CI) [5, 13]: 1.02 (0.93–1.12) ^c
- CLr ratio of abrocitinib + substrate vs. substrate alone AGm (90% CI) [5, 13]: 0.91 (0.83–1.01) ^c
- Cmax ratio of abrocitinib + substrate vs. substrate alone AGm (90% CI) [5, 13]: 0.99 (0.86–1.14) ^c
- increase of rosuvastatin AUC with ABCG2 421A/A vs. wild‐type ([6]; ABCG2 (BCRP) polymorphism): ~ 2 fold
- parent drug recovered in urine ([6]; after oral dosing): 10%

Compound: CCCS(=O)(=O)N[C@H]1C[C@@H](N(C)c2ncnc3[nH]ccc23)C1 [abrocitinib, Abrocitinib]
- serious or severe adverse events ([7]; all three pharmacokinetic studies, abrocitinib 200 mg with probe drugs): No serious or severe adverse events
- tolerability ([7]; co‐administered with a single oral dose of dabigatran etexilate, rosuvastatin, or metformin, healthy volunteers): well‐tolerated
- anticipated maximum increase in digoxin AUC [8]: ≤ 30%
- absorption rate constant (ka) [9]: 0.067 min⁻¹
- fraction absorbed (fafg) [9]: 0.91
- Theoretical gut concentration (Igut) [9]: 0.8 mg/mL
- Theoretical gut concentration (Igut) ([9]; MW 323.4): 2.47 mM
- 0.1 × molar dose/250 mL ([9]; cutoff for intestinal transporters, 200 mg dose): 247 µM
- 50 × Cmax,u ([9]; cutoff for systemic transporters, unbound steady-state Cmax): 65 µM
- Theoretical liver inlet concentration (Iin,max,u) ([9]; fu × (Cmax + ((fafg × ka × Dose/Qh)/B/P))): 9.1 µM

Compound: C[C@H]1O[C@@H](O[C@H]2[C@@H](O)C[C@H](O[C@H]3[C@@H](O)C[C@H](O[C@H]4CC[C@@]5(C)[C@H](CC[C@@H]6[C@@H]5C[C@@H](O)[C@]5(C)[C@@H](C7=CC(=O)OC7)CC[C@]65O)C4)O[C@@H]3C)O[C@@H]2C)C[C@H](O)[C@@H]1O [digoxin]
- absolute bioavailability [6]: 75–78%

Compound: CCCN(CCC)S(=O)(=O)c1ccc(C(=O)O)cc1 [probenecid]
- decrease in CLr of rosuvastatin or furosemide in the presence of probenecid ([6]; OAT3 index inhibitor, approximate five‐fold): ~80%

Compound: C=C[C@H]1C[N@@]2CC[C@H]1C[C@@H]2[C@@H](O)c1ccnc2ccc(OC)cc12 [quinidine]
- increase of dabigatran exposures ([6]; P‐gp interaction, dabigatran labeling): 50–60%
